Experiment [1] deals with primary rat hippocampal neurons. Particulars: for effect on Elk-1 induced cell death: Elk-1 GFP mRNA photoporated into dendrites.
Method: Cultured primary rat hippocampal neurons were bathed in 10-15 μg capped mRNA in 1 ml extracellular saline at 37° C. In some cases, neurons were pre-incubated with the translation inhibitor, anisomycin (5 μM), the mitochondrial PTP inhibitor, bongkrekic (BKA; 25 μM), or the transcriptional inhibitor, actinomycin D (1 μg/ml).
Samples were imaged and photoporated using a Prairie Ultima multiphoton scan head attached to an Olympus BX61 fixed-stage upright microscope equipped with a 40× water immersion lens (LUMPlanFI/IR, N.A. 0.8). 8 to 16 points were selected over a 2 μm×2 μm area for photoporation. A Ti-sapphire laser (Mai-Tai®, Spectral-Physics, Mountain View, Calif.) was used to make transient poration sites for 5 milliseconds at 30 mW (at back aperture of lens) energy. After photoporation, samples were transferred to an Olympus IX81 inverted microscope for simultaneous GFP fluorescence and DIC imaging. All images were processed with Metamorph (Universal Imaging Corporation) image processing software. For cell death assays, a LIVE/DEAD cell viability/cytotoxicity kit (Molecular Probes) was used according to the manufacturer's instructions.
A cell viability/cytotoxicity assay (Invitrogen Molecular Probes, Carlsbad, Calif.) was used to confirm the morphological observations of cell death following Elk-1 GFP mRNA photoporation. […] Obvious morphological signs of cell death may take hours to become apparent, whereas the use of a nuclear dye allows rapid identification of neurons that are in the process of dying.
Experiment [2] concerns primary rat corticol neurons. Kind of experiment: Elk-1 association with mitochondria, Western blotting of mitochondrial fractions. The class given is cell-based. Particulars: Western blotting after drug application. Background: In western blotting, separated proteins are transferred to a membrane and probed.
Method: Mitochondrial fractionation for western blots: A mitochondrial isolation kit (Pierce) was used according to the manufacturer's instructions to isolate mitochondria from primary neuronal cultures. Once isolated, mitochondria were lysed in buffer containing: 150 mM NaCl, 1% NP-40, 0.5% Deoxycholic acid, 0.1% SDS, 50 mM Tris, 10 ug/mL Aprotinin, 5 ug/mL Leupeptin, 1 mM sodium orthovanidate, 1 mM PMSF and 100 ug/mL TPCK. Lysate was then used for western blotting with the following antibodies: Elk-1 (Cell Signaling Technology), VDAC 1 (Santa Cruz Biotechnology), NeuN (Abcam).
To examine whether specific cellular insults could increase or decrease the association between Elk-1 and mitochondria, primary rat corticol neurons were exposed to a variety of compounds known to induce cell death in neurons, and mitochondrial fractions were then isolated and used for Western blotting.
Experiment [3] concerns primary rat hippocampal neurons. Briefly: DAPI and Hoechst nuclear stains for pycnotic nuclei. The class given is cell-based. The conditions noted are these: cells treated for 3 hours with 30 μM. On the procedure: FIG. 5A is a graph depicting cell counts after Elk-1 over-expression. Neurons electroporated with Elk-1 in a pcDNA vector were stained with a MAP2 antibody at 48, 72, 96 and 168 hours after plating. Two 5× images of MAP2 immunoreactive neurons were taken for each experiment, and MAP2 positive neurons were counted manually. Shown are the percent decreases in MAP2 positive neurons compared to control. (Line=best fit) FIG. 5B are images of MAP2 immunoreactivity from neurons electroporated with a control pcDNA vector (right image) or with Elk-1 in pcDNA (left image). FIG. […] Scale bar=20 μm.
In order to assess whether neurons were dying via apoptosis or necrosis following Elk-1 over-expression, DAPI and Hoechst nuclear stains were used to look for evidence of pycnotic nuclei, characteristic of an apoptotic phenotype.

Experiment [4] has the same test system. Kind of experiment: Elk-1 immunocytochemistry after mGluR stimulation. The class given is cell-based. The conditions noted are these: 30-minute application, 50 μM, n=7.
From the text: Immunocytochemistry/immunohistochemistry: Three polyclonal antibodies raised against Elk-1 (Santa Cruz Biotechnology, Santa Cruz, Calif.; Cell Signaling Technology, Beverly, Mass.) were used to detect Elk-1 protein in primary rat hippocampal cultures and in adult rat brain sections. A monoclonal antibody raised against a synthetic phospho-peptide of Elk-1 was used to detect Elk-1 protein phosphorylated at S383 (Cell Signaling Technology). […] For stimulation experiments, cultured neurons were placed in warm Hals buffer (pH=7.4) and treated with the Group I mGluR agonist, dihydrophenylglycine (DHPG; Tocris Cookson Inc., Ellisville, Mo.) at a final concentration of 50 μM for 30 minutes at 37° C. prior to fixation and immunocytochemistry.

Entries after “also recorded” stand apart in the source; their conditions may differ. Like-named read-outs stand apart in the source and are kept apart here. *1 amine or outer side, *2 acyl side, *3 side chain or, on linkers, in order; H or OH if unused. Where a SMILES comes first, the peptide text is derived from it. Bridges are numbered along the chain shown (N, C = ends). Roman numbers before positions name the chains, in order. [ ]: non-standard residue; d: D form. Actinocin(9to1) = Cc1c2oc3c(C)ccc(C(=O)[*:1])c3nc-2c(C(=O)[*:2])c(N)c1=O; NMeV = CN[C@H](C(=O)O)C(C)C; Sar = CNCC(=O)O

For the molecule `Cc1c2oc3c(C)ccc(C(=O)N[C@@H]4C(=O)N[C@H](C(C)C)C(=O)N5CCC[C@H]5C(=O)N(C)CC(=O)N(C)[C@@H](C(C)C)C(=O)O[C@@H]4C)c3nc-2c(C(=O)N[C@@H]2C(=O)N[C@H](C(C)C)C(=O)N3CCC[C@H]3C(=O)N(C)CC(=O)N(C)[C@@H](C(C)C)C(=O)O[C@@H]2C)c(N)c1=O` [actinomycin D] (I: T[dV]P[Sar][NMeV] / II: T[dV]P[Sar][NMeV]; ester I:1-I:C, II:1-II:C; linker I:N-II:N via Actinocin(9to1)), in experiment [1] (pre-incubation with transcriptional inhibitor 1 μg/ml, n=7), the “effect on Elk-1 induced cell death” value is reported as “inhibited”.

As to `CC[C@@]1(O)C(=O)OCc2c1cc1n(c2=O)Cc2cc3ccccc3nc2-1` [camptothecin], in experiment [2], the “Elk-1 association with mitochondria” value is given as “increased its association with mitochondria”. Besides, the pycnotic nuclei entry in experiment [3] was “presence of pycnotic nuclei”.

As for `N[C@H](C(=O)O)c1cc(O)cc(O)c1` [DHPG, dihydrophenylglycine], the “Elk-1 immunoreactivity in both cell somas and dendrites” value in experiment [4] was “substantial increase”.

As to `COc1ccc(C[C@H]2NC[C@H](O)[C@H]2OC(C)=O)cc1` [anisomycin], the “effect on Elk-1-induced cell death” value in experiment [1] (pre-incubation with translational inhibitor 5 μM, Elk-1 GFP mRNA photoporated) was “blocked; also recorded: absence of cell death”.

For `CO[C@H](C/C=C\C=C\CC/C=C/C[C@H](C)/C=C/C(=C\C(=O)O)CC(=O)O)/C(C)=C\C=C(/C)C(=O)O` [BKA, bongkrekic acid], in experiment [1] (pre-incubation with mitochondrial PTP inhibitor 25 μM, n=10), the “effect on Elk-1 induced cell death” value is on record as “blocked; also recorded: cells did not die”.

The values are drawn from patent US9114159B2, “Transcription factors in neuronal dendrites-dendritic protein synthesis and cell death” (The Trustees of the University of Pennsylvania, priority 2005, dated 2015).
